Patent US8980911B2, “Heterocyclic compounds as protein kinase inhibitors” (Daiichi Sankyo Company, Limited, priority 2011, dated 2015)

Assays:
Assay type in all cases: biochemical
[1] = molecular target: T1, JAK2 (Homo sapiens, UniProt O60674); test: In vitro enzyme assay (cell-free HTRF kinase assay), JAK2; conditions: catalytic domain, His-tag; ATP 10 μM, SRCtide 25 nM, reaction 30 min
T1 construct: All enzymes only contain the catalytic domain; His (N); purchased Carna Bioscience, Inc; host or cells: baculovirus expression system
Procedure: (§1) Kinase buffer [50 mM HEPES (pH 7.5), 1 mM EGTA, 10 mM MgCl2, 2 mM DTT and 0.01% Tween-20) was prepared and dilutions of a compound of formula (I) and other reagents were subsequently made in it. Two times concentrated compound of formula (I) solution: A compound of formula (I) was diluted to 100-fold final concentration in DMSO, followed by 50-fold dilution with Kinase buffer (1% DMSO final concentration). Four times concentrated Substrate/ATP mix solution: Biotin-SRCtide and ATP were diluted to 4-fold final concentration in Kinase buffer. Biotin-SRCtide solution (purchased from Anaspec) was mixed with ATP solution (1:1). Four times concentrated Enzyme solution: JAK1 or JAK2 or JAK3 or TYK2 enzyme [Human baculo virus expressed JAK1, JAK2, JAK3 and TYK2 were purchased from Carna Bioscience, Inc. All enzymes only contain the catalytic domain. JAK1 (aa 850-1154) and TYK2 (aa 871-1187) are expressed with an N-terminally fused GST-tag, and JAK2 and JAK3 with an N-terminally fused His-tag] was diluted to 4-fold final concentration in Kinase buffer and always kept on ice. Detection buffer: LANCE detection buffer (10 times concentrated) was diluted 10-fold in H2O. Four times concentrated stop solution: EDTA was diluted to a concentration of 40 mM in detection buffer. Four times concentrated ULight/Eu-antibody (from Perkin Elmer) mix solution: ULight-Streptavidin was diluted to a concentration of 100 nM (25 ng/mL final concentrations) and Eu-anti-phospho-Tyrosine (PT66) (from Perkin Elmer) was diluted to a concentration of 8 nM (2 ng/mL final concentration) in detection buffer.
(§2) Cell-free in vitro kinase assay was performed in 384 well plates. Two times concentrated compound solution (5 μL) was pipetted into a HTS 384SV Small Volume Plate. Four times concentrated Substrate/ATP mix (2.5 μL) solution was added along with 4 times concentrated Enzyme solution (2.5 μL). Plate was covered with TopSeal-A and incubated at room temperature for indicated time (Table 3). Four times concentrated Stop solution (5 μL, 10 mM final concentration) was added and incubated for 5 minutes at room temperature. Four times concentrated ULight/Eu-antibody mix solution (5 μL) was added and again plate was covered with TopSeal and incubated overnight at 4° C. TopSeal was removed and HTRF signal was measured at 615 nm and […] (excitation at 320 or 340 nm) on Tecan M1000 Multi mode plate reader. Ratio (665 nm/615 nm)×10^4 was calculated and IC50 values were deduced from Graph-pad prism 4.2.

[2] = molecular target: T2, JAK1 (Homo sapiens, UniProt P23458); test: In vitro enzyme assay (cell-free HTRF kinase assay), JAK1; conditions: catalytic domain aa 850-1154, GST-tag; ATP 60 μM, SRCtide 400 nM, reaction 120 min
T2 construct: JAK1 (aa 850-1154) and TYK2 (aa 871-1187) are expressed with an N-terminally fused GST-tag; GST (N); purchased Carna Bioscience, Inc; host or cells: baculovirus expression system
Procedure: as §1, §2

[3] = molecular target: T3, JAK3 (Homo sapiens, UniProt P52333); test: In vitro enzyme assay (cell-free HTRF kinase assay), JAK3; conditions: catalytic domain, His-tag; ATP 3 μM, SRCtide 100 nM, reaction 30 min
T3 construct: All enzymes only contain the catalytic domain; His (N); purchased Carna Bioscience, Inc; host or cells: baculovirus expression system
Procedure: as §1, §2

T3 sequence (P52333 822-1111 limits assumed): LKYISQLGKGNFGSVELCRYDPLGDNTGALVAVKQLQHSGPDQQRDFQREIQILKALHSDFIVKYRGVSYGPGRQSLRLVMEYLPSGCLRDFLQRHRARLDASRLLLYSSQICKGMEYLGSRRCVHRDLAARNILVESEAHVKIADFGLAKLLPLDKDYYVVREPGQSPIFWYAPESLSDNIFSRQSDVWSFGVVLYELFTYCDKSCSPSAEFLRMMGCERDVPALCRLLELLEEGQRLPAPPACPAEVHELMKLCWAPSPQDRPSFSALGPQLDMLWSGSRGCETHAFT
T2 sequence (P23458 850-1154): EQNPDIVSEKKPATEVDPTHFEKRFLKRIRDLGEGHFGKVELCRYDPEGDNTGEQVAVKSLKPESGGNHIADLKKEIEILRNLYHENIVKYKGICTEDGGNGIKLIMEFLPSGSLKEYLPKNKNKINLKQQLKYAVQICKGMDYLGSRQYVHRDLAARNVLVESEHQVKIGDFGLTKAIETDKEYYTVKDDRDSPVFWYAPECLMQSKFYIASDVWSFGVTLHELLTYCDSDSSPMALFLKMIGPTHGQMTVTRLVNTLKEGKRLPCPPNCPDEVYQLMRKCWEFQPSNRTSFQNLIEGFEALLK
T1 sequence (O60674 849-1124 limits assumed): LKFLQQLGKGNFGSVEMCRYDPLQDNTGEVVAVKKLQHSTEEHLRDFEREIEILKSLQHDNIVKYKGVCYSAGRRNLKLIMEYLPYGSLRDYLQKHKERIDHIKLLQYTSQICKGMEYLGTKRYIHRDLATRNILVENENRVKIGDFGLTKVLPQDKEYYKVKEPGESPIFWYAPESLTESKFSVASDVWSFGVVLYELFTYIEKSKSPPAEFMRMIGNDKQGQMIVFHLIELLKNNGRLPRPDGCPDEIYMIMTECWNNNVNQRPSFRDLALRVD

Structure (SMILES) | IC50 [1] [nM] | IC50 [2] [nM] | IC50 [3] [nM]
O=C(c1c(Cl)cc(CO)cc1Cl)c1c[nH]c2c(NC(=O)C3CC3)nccc12 [Compound No. 58, N-{3-[2,6-Dichloro-4-(hydroxymethyl)benzoyl]-1H-pyrrolo[2,3-c]pyridin-7-yl}cyclopropanecarboxamide] | < 1000 | < 1000 | < 1000
CNCc1cc(Cl)c(C(=O)n2ccc3c(NC(=O)C4CC4)nccc32)c(Cl)c1 [Compound No. 163, N-(1-{2,6-Dichloro-4-[(methylamino)methyl]benzoyl}-1H-pyrrolo[3,2-c]pyridin-4-yl)cyclopropanecarboxamide] | < 500 | < 500 | < 100
CCOC(=O)[C@H](C)NC(=O)c1cc(Cl)c(C(=O)n2ccc3c(NC(=O)C4CC4)nccc32)c(Cl)c1 [Compound No. 141, Ethyl N-[3,5-dichloro-4-({4-[(cyclopropylcarbonyl)amino]-1H-pyrrolo[3,2-c]pyridin-1-yl}carbonyl)benzoyl]alaninate] | < 1000 | < 1000 | < 1000
CC(C)NC(=O)c1cc(Cl)c(C(=O)n2ccc3c(NC(=O)C4CC4)nccc32)c(Cl)c1 [Compound No. 107, 3,5-Dichloro-4-({4-[(cyclopropylcarbonyl)amino]-1H-pyrrolo[3,2-c]pyridin-1-yl}carbonyl)-N-(propan-2-yl)benzamide] | < 500 | < 500 | < 500
CC(=O)Nc1nccc2c(C(=O)c3c(Cl)cc(C(=O)NCCN4CCCCC4)cc3Cl)c[nH]c12 [Compound No. 42, 4-{[7-(Acetylamino)-1H-pyrrolo[2,3-c]pyridin-3-yl]carbonyl}-3,5-dichloro-N-[2-(piperidin-1-yl)ethyl]benzamide] | < 1000 | < 1000 | < 1000
O=C(c1c(Cl)cccc1Cl)c1c[nH]c2c(NC(=O)C3CC3)nccc12 [Compound No. 5, N-[3-(2,6-Dichlorobenzoyl)-1H-pyrrolo[2,3-c]pyridin-7-yl]cyclopropanecarboxamide] | < 500 | < 500 | < 500
CCNC(=O)c1cc(Cl)c(C(=O)n2ccc3cnc(NC(=O)C4CC4)cc32)c(Cl)c1 [Compound No. 130, 3,5-dichloro-4-({6-[(cyclopropylcarbonyl)amino]-1H-pyrrolo[3,2-c]pyridin-1-yl}carbonyl)-N-ethylbenzamide] | < 50 | < 500 | < 100
CN(C)CCNC(=O)c1cc(F)c(C(=O)c2c[nH]c3c(NC(=O)C4CC4)nccc23)c(F)c1 [Compound No. 63, 4-({7-[(Cyclopropylcarbonyl)amino]-1H-pyrrolo[2,3-c]pyridin-3-yl}carbonyl)-N-[2-(dimethylamino)ethyl]-3,5-difluorobenzamide] | < 500 | < 500 | < 500
CCOCCCNC(=O)c1cc(Cl)c(C(=O)c2c[nH]c3c(NC(=O)C4CC4)nccc23)c(Cl)c1 [Compound No. 56, 3,5-Dichloro-4-({7-[(cyclopropylcarbonyl)amino]-1H-pyrrolo[2,3-c]pyridin-3-yl}carbonyl)-N-(3-ethoxypropyl)benzamide] | < 500 | < 500 | < 500
O=C(NCc1ccccn1)c1cc(Cl)c(C(=O)n2ccc3c(NC(=O)C4CC4)nccc32)c(Cl)c1 [Compound No. 147, 3,5-Dichloro-4-({4-[(cyclopropylcarbonyl)amino]-1H-pyrrolo[3,2-c]pyridin-1-yl}carbonyl)-N-(pyridin-2-ylmethyl)benzamide] | < 500 | < 500 | < 500
CCNC(=O)c1cc(Cl)c(C(=O)c2c[nH]c3c(NC(=O)C4CC4)nccc23)c(Cl)c1 [Compound No. 13, 3,5-Dichloro-4-({7-[(cyclopropylcarbonyl)amino]-1H-pyrrolo[2,3-c]pyridin-3-yl}carbonyl)-N-ethylbenzamide] | < 500 | < 1000 | < 500
